The data set can be described thus: UV-Vis absorption and fluorescence spectroscopy of the Oxazine library. Format: physicochemical. The conditions noted are these: for Extinction coefficient: Beer's Law plots; for Quantum yield: relative, references Oxazine 1, Oxazine 170, Rhodamine 101. The procedure: All reagents were purchased from Sigma Aldrich, Fisher Scientific, TCI, or Ark Pharm. Unless otherwise indicated, all commercially available starting materials were used directly without further purification. Analytical thin layer chromatography (TLC) was performed on Millipore ready-to-use plates with silica gel 60 (F254, 32-63 μm). Flash chromatography was performed on Sorbent Technologies silica gel for column chromatography or on a Biotage Isolera Flash System using SNAP Ultra cartridges. High-resolution mass spectra (HRMS) were measured on a ThermoElectron LTQ-Orbitrap high resolution mass spectrometer with a dedicated Accela HPLC system, or an Agilent 6244 time-of-flight LCMS with diode array detector VL+. LCMS and Purity Characterization Mass-to-charge ratio and purity of the Oxazine compounds were characterized on an Agilent 6244 time-of-flight tandem liquid chromatography mass spectroscopy (LCMS) with diode array detector VL+. Sample (10 μL) was injected into a C18 column (Poroshell 120, 4.6×50 mm, 2.7 micron), and eluted with a solvent system of A (H2O, 0.1% FA) and B (MeCN, 01.% FA) at 0.4 mL/min, from A/B=90/10 to 5/95 over 10 min, maintained at A/B=5/95 for additional 5 min. Ions were detected in positive ion mode by setting the capillary voltage at 4 kV and gas temperature at 350° C. Purity was calculated through area under the curve analysis of the absorbance at 254 nm. UV-Vis Absorption and Fluorescence Spectroscopy. UV-Vis spectra were collected with a Cary 50 UV-Vis spectrophotometer at room temperature, using a 1-cm quartz cuvette. Fluorescence spectra were collected on a Cary Eclipse fluorescence spectrophotometer (Agilent Technologies). All absorbance spectra were reference corrected. Extinction coefficient was calculated from Beer's Law plots of absorbance versus concentration. Fluorescence spectra were corrected for the wavelength dependent response of the R928 photomultiplier tube using a manufacturer generated correction file. Relative quantum yields are reported as the average of multiple measurements using multiple references, including Oxazine 1, Oxazine 170, and Rhodamine 101. Physicochemical Property Calculation. Physicochemical partition coefficients (Log D) values at pH 7.4, number of hydrogen bond donors and acceptors, polar surface area, and the number of rotatable bonds were calculated using Marvin and JChem calculator plugins (ChemAxon, Budapest, Hungary). Nerve-Specificity Screening using Direct/Topical Administration Each compound was screened for its tissue-specificity using a previously published direct/topical administration strategy in murine brachial plexus and sciatic nerves.^1 Each compound from the Oxazine library was formulated in the previously utilized co-solvent formulation (10% DMSO, 5% Kolliphor, 65% serum and 20% phosphate buffered saline) at 125 μM. 100 μL of the formulated Oxazine were incubated on the exposed brachial plexus or sciatic nerve for 5 minutes. The fluorophore containing solution was removed and the area was irrigated with saline 18 times to remove any unbound fluorophore. Co-registered fluorescence and color images were collected of each stained area 30 minutes after Oxazine direct/topical administration using a custom built macroscopic imaging system with 620/60 nm excitation and 700/75 nm bandpass emission filters. Custom written MatLab code was used to analyze the tissue specific fluorescence where regions of interest were selected on the nerve, muscle and adipose tissue using the white light images. These regions of interest were then analyzed on the co-registered matched fluorescence images permitting assessment of the nerve to muscle and nerve to adipose ratios in blinded manner. […]

On to `c1c2c(cc3c1N=c1cc4c(cc1O3)=NCCC4)NCCC2` [LGW03-32, 3,4,8,9,10,11-hexahydro-2H-dipyrido[3,2-b:2′,3′-i]phenoxazin-1-ium], for which the “Max Abs” value worked out at 631 nm, the “Max Em” value is given as 644 nm, the “Max Ex” value was 630 nm and the Extinction coefficient worked out at 45650 M⁻¹ cm⁻¹. The Quantum yield amounted to 29.92%.

For the compound `CC/N=c1/cc2oc3cc4c(cc3nc-2cc1C)OCCN4` [LGW03-41, (Z)—N-(9-methyl-3,4-dihydro-[1,4]oxazino[2,3-b]phenoxazin-8(2H)-ylidene)ethanaminium], the “Max Abs” value stood at 607 nm, the “Max Em” value is reported as 641 nm, the “Max Ex” value is 625 nm and the Extinction coefficient was 19729 M⁻¹ cm⁻¹. For the same compound, the Quantum yield stood at 25.80%.

On to `CCN1c2cc3oc4cc(=[N+](CC)CC)ccc-4nc3cc2C(C)=CC1(C)C` [LGW03-52, N-ethyl-N-(1-ethyl-2,2,4-trimethyl-1,2-dihydro-9H-pyrido[3,2-b]phenoxazin-9-ylidene)ethanaminium], for which the “Max Abs” value came out at 678 nm, the “Max Em” value was 699 nm, the “Max Ex” value is 680 nm and the Extinction coefficient was found to be 38039 M⁻¹ cm⁻¹. Besides, the Quantum yield is 6.82%.

Consider `c1c2c(cc3c1Oc1cc4c(cc1=N3)OCCN=4)OCCN2` [LGW03-65, 3,8,9,10-tetrahydro-2H-bis([1,4]oxazino)[2,3-b:3′,2′-i]phenoxazin-4-ium], for which the “Max Abs” value came to 629 nm, the “Max Em” value was determined as 643 nm, the “Max Ex” value is recorded as 630 nm and the Extinction coefficient is 28067 M⁻¹ cm⁻¹. The Quantum yield is reported as 27.39%.

In the case of `CC[N+](CC)=c1ccc2nc3cc4c(cc3oc-2c1)NCC4` [LGW03-88, N-(2,3-dihydropyrrolo[3,2-b]phenoxazin-8(1H)-ylidene)-N-ethylethanaminium], the “Max Abs” value stood at 631 nm, the “Max Em” value came to 659 nm, the “Max Ex” value is 640 nm and the Extinction coefficient was found to be 59737 M⁻¹ cm⁻¹. Moreover, the Quantum yield is on record as 6.22%.

Turning to `CCCNc1cc2oc3c/c(=N/CC)c(C)cc-3nc2cc1C` [LGW04-32, (Z)—N-(2,8-dimethyl-7-(propylamino)-3H-phenoxazin-3-ylidene)ethanaminium], the “Max Abs” value is 620 nm, the “Max Em” value was 638 nm, the “Max Ex” value is given as 620 nm and the Extinction coefficient amounted to 61084 M⁻¹ cm⁻¹. Also, the Quantum yield was determined as 39.77%.

For `CC/N=c1/cc2oc3cc(N(C)C)ccc3nc-2cc1C` [LGW04-36, (Z)—N-(7-(dimethylamino)-2-methyl-3H-phenoxazin-3-ylidene)ethanaminium], the “Max Abs” value is recorded as 636 nm, the “Max Em” value was 657 nm, the “Max Ex” value came to 635 nm and the Extinction coefficient is 60819 M⁻¹ cm⁻¹. This compound came in with a Quantum yield of 8.15%.

Turning to `CC/N=c1/cc2oc3cc(NC)c(C)cc3nc-2cc1C` [LGW04-81, (Z)—N-(2,8-dimethyl-7-(methylamino)-3H-phenoxazin-3-ylidene)ethanaminium], the “Max Abs” value worked out at 616 nm, the “Max Em” value is listed as 634 nm, the “Max Ex” value is recorded as 615 nm and the Extinction coefficient came to 52291 M⁻¹ cm⁻¹. This compound also yielded a Quantum yield of 39.47%.

Consider `c1cc2nc3ccc(=[N+]4CCCCC4)cc-3oc2cc1N1CCCCC1` [LGW04-91, 1-(7-(piperidin-1-yl)-3H-phenoxazin-3-ylidene)piperidin-1-ium], for which the “Max Abs” value stood at 663 nm, the “Max Em” value is recorded as 689 nm, the “Max Ex” value is 665 nm and the Extinction coefficient came to 85597 M⁻¹ cm⁻¹. Further, the Quantum yield came to 2.77%.

As to `CCNc1cc2oc3cc(=[N+](CC)CC)ccc-3nc2cc1Cl` [LGW05-33, N-(8-chloro-7-(ethylamino)-3H-phenoxazin-3-ylidene)-N-ethylethanaminium], the “Max Abs” value is on record as 638 nm, the “Max Em” value is reported as 660 nm, the “Max Ex” value was found to be 640 nm and the Extinction coefficient came out at 36166 M⁻¹ cm⁻¹. The same compound displayed a Quantum yield of 3.84%.

As to `CC/N=c1/cc2oc3cc(NCC)c(Cl)cc3nc-2cc1Cl` [LGW05-39, (Z)—N-(2,8-dichloro-7-(ethylamino)-3H-phenoxazin-3-ylidene)ethanaminium], the “Max Abs” value was 620 nm, the “Max Em” value is on record as 638 nm, the “Max Ex” value is 620 nm and the Extinction coefficient was found to be 18223 M⁻¹ cm⁻¹. The same compound displayed a Quantum yield of 34.29%.

As to `CC/N=c1/cc2oc3cc(NCC)c(Cl)cc3nc-2cc1C` [LGW05-42, (Z)—N-(8-chloro-7-(ethylamino)-2-methyl-3H-phenoxazin-3-ylidene)ethanaminium], the “Max Abs” value is 612 nm, the “Max Em” value came out at 636 nm, the “Max Ex” value is reported as 615 nm and the Extinction coefficient amounted to 41527 M⁻¹ cm⁻¹. In addition, the Quantum yield was determined as 37.22%.

On to `CCN1CCOc2cc3nc4ccc(=[N+](CC)CC)cc-4oc3cc21` [LGW05-65, N-ethyl-N-(4-ethyl-3,4-dihydro-[1,4]oxazino[2,3-b]phenoxazin-8(2H)-ylidene)ethanaminium], for which the “Max Abs” value is listed as 661 nm, the “Max Em” value stood at 684 nm, the “Max Ex” value was found to be 665 nm and the Extinction coefficient came to 61535 M⁻¹ cm⁻¹. The Quantum yield is on record as 7.85%.

Take `CCN1c2cc3c(cc2C(C)=CC1(C)C)N=c1cc2c(cc1O3)=[N+](CC)C(C)(C)C=C2C` [LGW05-66, 1,11-diethyl-2,2,4,8,10,10-hexamethyl-10,11-dihydro-2H-dipyrido[3,2-b:2′,3′-i]phenoxazin-1-ium]: the “Max Abs” value was 701 nm, the “Max Em” value is on record as 718 nm, the “Max Ex” value was determined as 710 nm and the Extinction coefficient turned out to be 34002 M⁻¹ cm⁻¹. The compound further registered a Quantum yield of 36.68%.

As for `CCN1CCOc2cc3c(cc21)Oc1cc2c(cc1=N3)OCC[N+]=2CC` [LGW05-73, 4,8-diethyl-3,8,9,10-tetrahydro-2H-bis([1,4]oxazino)[2,3-b:3′,2′-i]phenoxazin-4-ium], the “Max Abs” value is 657 nm, the “Max Em” value was 676 nm, the “Max Ex” value worked out at 660 nm and the Extinction coefficient was 55570 M⁻¹ cm⁻¹. This compound yielded a Quantum yield of 32.95%.

As for `CC/N=c1/cc2oc3cc4c(cc3nc-2cc1C)CCN4CC` [LGW05-76, (Z)—N-(1-ethyl-7-methyl-2,3-dihydropyrrolo[3,2-b]phenoxazin-8(1H)-ylidene)ethanaminium], the “Max Abs” value amounted to 628 nm, the “Max Em” value is on record as 650 nm, the “Max Ex” value amounted to 630 nm and the Extinction coefficient was 45449 M⁻¹ cm⁻¹. The Quantum yield is listed as 32.68%.

For `CC/N=c1/cc2oc3cc(NCC)c(F)cc3nc-2cc1C` [LGW05-81, (Z)—N-(7-(ethylamino)-8-fluoro-2-methyl-3H-phenoxazin-3-ylidene)ethanaminium], the “Max Abs” value came out at 611 nm, the “Max Em” value is listed as 632 nm, the “Max Ex” value is given as 610 nm and the Extinction coefficient was found to be 58410 M⁻¹ cm⁻¹. The Quantum yield stood at 43.02%.

In the case of `CCNc1cc2oc3cc(=[N+](CC)CC)ccc-3nc2cc1F` [LGW05-82, N-ethyl-N-(7-(ethylamino)-8-fluoro-3H-phenoxazin-3-ylidene)ethanaminium], the “Max Abs” value is recorded as 636 nm, the “Max Em” value is 661 nm, the “Max Ex” value turned out to be 640 nm and the Extinction coefficient came out at 36833 M⁻¹ cm⁻¹. For the same compound, the Quantum yield was found to be 2.70%.

Consider `Cc1cc2nc3cc(C)c(=N)cc-3oc2cc1N` [LGW06-14, 7-amino-2,8-dimethyl-3H-phenoxazin-3-iminium], for which the “Max Abs” value is on record as 590 nm, the “Max Em” value worked out at 606 nm, the “Max Ex” value was determined as 590 nm and the Extinction coefficient worked out at 39303 M⁻¹ cm⁻¹. Also, the Quantum yield worked out at 37.61%.

These data come from patent publication US11492359B2, “Near-infrared nerve-sparing fluorophores” (OREGON HEALTH & SCIENCE UNIVERSITY, priority 2018, dated 2022).
